Key:
Assay in all cases: Bliss excess, mean over the matrix (fraction); higher = more synergy
[1] = system: TGBC1TKB (Biliary Tract Carcinoma)
Outline: (§1)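 Cell lines grown in DMEM/F12 or RPMI with 10% FBS were plated in 1536-well plates and held 24 hours at 37°C, 5% CO2 before 72 hours of exposure to two-drug dose matrices, with DMSO typically at 0.2%. CellTiter-Glo 2.0 luminescence gave viability, which was converted to inhibition. Vehicle wells were set to 0 and blank wells to 1. Combination Emax is the second-highest inhibition in the matrix, and Bliss excess is the observed combination effect minus the expected EA + EB − EA·EB, where EA and EB are the single-agent effects.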

CAL-72 (Osteosarcoma) = system: CAL-72 (Osteosarcoma)
Outline: as §1

[2] = system: NCI-H524 (Small Cell Lung Carcinoma)
Outline: as §1

[3] = system: ESS-1 (Other Solid Carcinomas)
Outline: as §1

[4] = system: HuCCT1 (Biliary Tract Carcinoma)
Outline: as §1

KS-1 (Glioblastoma) = system: KS-1 (Glioblastoma)
Outline: as §1

LOXIMVI (Melanoma) = system: LOXIMVI (Melanoma)
Outline: as §1

MPP-89 (Mesothelioma) = system: MPP-89 (Mesothelioma)
Outline: as §1

[5] = system: SAS (Oral Cavity Carcinoma)
Outline: as §1

[6] = system: SW1710 (Bladder Carcinoma)
Outline: as §1

BPH-1 (Non-Cancerous) = system: BPH-1 (Non-Cancerous)
Outline: as §1

BE2-M17 (Neuroblastoma) = system: BE2-M17 (Neuroblastoma)
Outline: as §1

NCI-H2722 (Mesothelioma) = system: NCI-H2722 (Mesothelioma)
Outline: as §1

[7] = system: HeLa (Cervical Carcinoma)
Outline: as §1

[8] = system: LCLC-97TM1 (Non-Small Cell Lung Carcinoma)
Outline: as §1

[9] = system: Hs-746T (Gastric Carcinoma)
Outline: as §1

[10] = system: CAL-33 (Oral Cavity Carcinoma)
Outline: as §1

[11] = system: HuH-7 (Hepatocellular Carcinoma)
Outline: as §1

[12] = system: BFTC-909 (Kidney Carcinoma)
Outline: as §1

[13] = system: OV-56 (Ovarian Carcinoma)
Outline: as §1

| Compound | Bliss excess [1] | Bliss excess (CAL-72 (Osteosarcoma)) | Bliss excess [2] | Bliss excess [3] | Bliss excess [4] | Bliss excess (KS-1 (Glioblastoma)) | Bliss excess (LOXIMVI (Melanoma)) | Bliss excess (MPP-89 (Mesothelioma)) | Bliss excess [5] | Bliss excess [6] | Bliss excess (BPH-1 (Non-Cancerous)) | Bliss excess (BE2-M17 (Neuroblastoma)) | Bliss excess (NCI-H2722 (Mesothelioma)) | Bliss excess [7] | Bliss excess [8] | Bliss excess [9] | Bliss excess [10] | Bliss excess [11] | Bliss excess [12] | Bliss excess [13] |
| --- | --- | --- | --- | --- | --- | --- | --- | --- | --- | --- | --- | --- | --- | --- | --- | --- | --- | --- | --- | --- |
| CN(CCO)CC[C@H](CSc1ccccc1)Nc1ccc(S(=O)(=O)NC(=O)c2ccc(N3CCC([C@@H](O)c4ccccc4-c4ccc(Cl)cc4)CC3)cc2)cc1S(=O)(=O)C(F)(F)F [AZD4320] + CC(=O)O[C@H]1C(=O)[C@@]2(C)[C@H]([C@H](OC(=O)c3ccccc3)[C@]3(O)C[C@H](OC(=O)[C@H](O)[C@@H](NC(=O)c4ccccc4)c4ccccc4)C(C)=C1C3(C)C)[C@]1(OC(C)=O)CO[C@@H]1C[C@@H]2O [Paclitaxel] (first compound max 1 µM, 7x7, partner max 3 µM) | 0.118 | 0.19 | 0.0333 | 0.0663 | 0.0276 | 0.217 | 0.0164 | 0.108 | 0.0322 | 0.141 |  |  |  |  |  |  |  |  |  |  |
| CN(CCO)CC[C@H](CSc1ccccc1)Nc1ccc(S(=O)(=O)NC(=O)c2ccc(N3CCC([C@@H](O)c4ccccc4-c4ccc(Cl)cc4)CC3)cc2)cc1S(=O)(=O)C(F)(F)F [AZD4320] + CCN(CCO)CCCOc1ccc2c(Nc3cc(CC(=O)Nc4cccc(F)c4)[nH]n3)ncnc2c1 [AZD2811] (first compound max 1 µM, 7x7, partner max 1 µM) | -0.0478 | 0.0528 | -0.0163 | 0.21 | -0.0283 | 0.0261 | 0.0896 | 0.0246 | -0.037 | -0.0291 | -0.0079 | 0.12 | -0.024 | -0.0242 | 0.0642 | -0.0095 | 0.0228 | -0.0268 | 0.0605 | -0.0293 |
| CN(CCO)CC[C@H](CSc1ccccc1)Nc1ccc(S(=O)(=O)NC(=O)c2ccc(N3CCC([C@@H](O)c4ccccc4-c4ccc(Cl)cc4)CC3)cc2)cc1S(=O)(=O)C(F)(F)F [AZD4320] + C[C@@H]1COCCN1C2=NC(=NC(=C2)C3(CC3)[S@](=N)(=O)C)C4=C5C=CNC5=NC=C4 [AZD6738] (first compound max 1 µM, 7x7, partner max 10 µM) | -0.0093 | 0.05 | -0.0467 | -0.0296 | -0.0681 | 0.0082 | 0.0028 | -0.0163 | -0.0255 | -0.0455 | -0.0979 | -0.0458 | -0.0307 | -0.0319 | -0.0433 | -0.0021 | 0.0019 | -0.0144 | 0.042 | -0.005 |
| CN(CCO)CC[C@H](CSc1ccccc1)Nc1ccc(S(=O)(=O)NC(=O)c2ccc(N3CCC([C@@H](O)c4ccccc4-c4ccc(Cl)cc4)CC3)cc2)cc1S(=O)(=O)C(F)(F)F [AZD4320] + Cc1cc2ncnn2cc1Nc1ncc2c(n1)n(C1CCOCC1)c(=O)n2C [AZD7648] (first compound max 1 µM, 7x7, partner max 10 µM) | -0.0343 | 0.0278 | -0.044 | -0.0373 | -0.0407 | 0.0033 | 0.023 | -0.0105 | -0.0533 | -0.058 | -0.0325 | -0.0059 | -0.0695 | -0.0345 | -0.0214 | -0.0371 | -0.009 | 0.004 | -0.0094 | -0.0109 |
| CN(CCO)CC[C@H](CSc1ccccc1)Nc1ccc(S(=O)(=O)NC(=O)c2ccc(N3CCC([C@@H](O)c4ccccc4-c4ccc(Cl)cc4)CC3)cc2)cc1S(=O)(=O)C(F)(F)F [AZD4320] + Nc1ccn([C@@H]2O[C@H](CO)[C@@H](O)C2(F)F)c(=O)n1 [Gemcitabine] (first compound max 1 µM, 7x7, partner max 0.3 µM) | -0.0139 | 0.129 | -0.0216 | 0.0278 | -0.0245 | -0.0337 | 0.021 | 0.0268 | 0.0374 | -0.0401 |  |  |  |  |  |  |  |  |  |  |
| COc1nnc2ccc(N3CCC(c4ccc(OCCN5CCN(C)C(=O)[C@H]5C)cc4)CC3)nn12 [AZD5153] + CN(CC[C@H](CSC1=CC=CC=C1)NC2=C(C=C(C=C2)S(=O)(=O)NC(=O)C3=CC=C(C=C3)N4CCC(CC4)[C@H](C5=CC=CC=C5C6=CC=C(C=C6)Cl)O)S(=O)(=O)C(F)(F)F)CCO [AZD4320] (first compound max 1 µM, 7x7, partner max 1 µM) |  |  |  |  |  |  |  |  |  |  | 0.0728 | 0.0682 | 0.0387 | -0.033 | -0.0034 | 0.0125 | -0.0117 | 0.11 | 0.0663 | 0.015 |
| Cc1cc2ncnn2cc1Nc1ncc2c(n1)n(C1CCOCC1)c(=O)n2C [AZD7648] + C=CCn1c(=O)c2cnc(Nc3ccc(N4CCN(C)CC4)cc3)nc2n1-c1cccc(C(C)(C)O)n1 [AZD1775] (first compound max 10 µM, partner max 1 µM) | -0.0362 | -0.0194 | -0.0254 | 0.0525 | 0.0065 | 0.0297 | -0.0123 | 0.0215 | 0.0079 | 0.0692 | 0.0321 | -0.0837 | 0.0033 | -0.0542 | 0.0234 | -0.0827 | 0.0238 | 0.0039 | 0.0097 | 0.0602 |
| Cc1cc2ncnn2cc1Nc1ncc2c(n1)n(C1CCOCC1)c(=O)n2C [AZD7648] + CCN(CCO)CCCOc1ccc2c(Nc3cc(CC(=O)Nc4cccc(F)c4)[nH]n3)ncnc2c1 [AZD2811] (first compound max 10 µM, 7x7, partner max 1 µM) | 0.0111 | 0.0448 | -0.0043 | 0.128 | 0.0401 | -0.0405 | -0.0125 | 0.0023 | 0.0058 | 0.0167 | 0.0033 | 0.01 | 0.0323 | 0.0511 | 0.0467 | -0.0291 | -0.0089 | -0.0065 | 0.0076 | 0.0307 |
| Cc1cc2ncnn2cc1Nc1ncc2c(n1)n(C1CCOCC1)c(=O)n2C [AZD7648] + CN(C)CCCOc1ccc(-c2ccc3ncc4c(c3c2)n(C2CCOCC2)c(=O)n4C)cn1 [AZD0156] (first compound max 10 µM, 7x7, partner max 1 µM) | -0.027 | -0.0908 | 0.0254 | 0.0364 | 0.0032 | -0.068 | -0.0141 | 0.0139 | 0.0623 | -0.01 | 0.0049 | -0.0026 | -0.0023 | 0.0376 | -0.0042 | -0.024 | 0.0227 | -0.006 | -0.0032 | 0.0081 |
| Cc1cc2ncnn2cc1Nc1ncc2c(n1)n(C1CCOCC1)c(=O)n2C [AZD7648] + C[C@@H]1COCCN1C2=NC(=NC(=C2)C3(CC3)[S@](=N)(=O)C)C4=C5C=CNC5=NC=C4 [AZD6738] (first compound max 10 µM, 7x7, partner max 10 µM) | -0.002 | 0.0292 | 0.035 | -0.0161 | -0.0087 | -0.0011 | -0.0019 | -0.0034 | 0.0211 | 0.0067 | -0.0251 | -0.0073 | -0.0163 | 0.0258 | 0.0376 | -0.0119 | 0.0013 | 0.0151 | -0.0204 | 0.0044 |
| CC(=O)c1c(C)c2cnc(Nc3ccc(N4CCNCC4)cn3)nc2n(C2CCCC2)c1=O [Palbociclib] + CN(CC[C@H](CSC1=CC=CC=C1)NC2=C(C=C(C=C2)S(=O)(=O)NC(=O)C3=CC=C(C=C3)N4CCC(CC4)[C@H](C5=CC=CC=C5C6=CC=C(C=C6)Cl)O)S(=O)(=O)C(F)(F)F)CCO [AZD4320] (first compound max 10 µM, 7x7, partner max 1 µM) |  |  |  |  |  |  |  |  |  |  | -0.0818 | 0.0726 | -0.0497 | -0.0385 | -0.0326 | -0.0386 | -0.0398 | -0.0254 | -0.0576 | -0.062 |
| N#Cc1cnc(Nc2cc(NC[C@H]3CNCCO3)c(C(F)(F)F)cn2)cn1 [SRA737] + C=CCn1c(=O)c2cnc(Nc3ccc(N4CCN(C)CC4)cc3)nc2n1-c1cccc(C(C)(C)O)n1 [AZD1775] (first compound max 10 µM, partner max 1 µM) | -0.0128 | 0.0934 | 0.108 | 0.12 | -0.0292 | 0.0472 | 0.0086 | 0.041 | 0.0236 | 0.0292 |  |  |  |  |  |  |  |  |  |  |
| N#Cc1cnc(Nc2cc(NC[C@H]3CNCCO3)c(C(F)(F)F)cn2)cn1 [SRA737] + CCc1c2c(nc3ccc(O)cc13)-c1cc3c(c(=O)n1C2)COC(=O)[C@]3(O)CC [SN-38] (first compound max 10 µM, 7x7, partner max 0.3 µM) | 0.0008 | 0.0489 | 0.113 | -0.0091 | 0.0261 | -0.0798 | -0.0354 | 0.0191 | -0.0333 | 0.0736 |  |  |  |  |  |  |  |  |  |  |
| N#Cc1cnc(Nc2cc(NC[C@H]3CNCCO3)c(C(F)(F)F)cn2)cn1 [SRA737] + Nc1ccn([C@@H]2O[C@H](CO)[C@@H](O)C2(F)F)c(=O)n1 [Gemcitabine] (first compound max 10 µM, 7x7, partner max 0.3 µM) | 0.0401 | 0.0042 | 0.0346 | 0.0477 | 0.0507 | 0.0304 | -0.0122 | 0.0014 | 0.105 | 0.164 |  |  |  |  |  |  |  |  |  |  |
| C[C@@H](c1ccc2nccn2c1)n1nnc2ncc(-c3cnn(C)c3)nc21 [Savolitinib] + CN(CC[C@H](CSC1=CC=CC=C1)NC2=C(C=C(C=C2)S(=O)(=O)NC(=O)C3=CC=C(C=C3)N4CCC(CC4)[C@H](C5=CC=CC=C5C6=CC=C(C=C6)Cl)O)S(=O)(=O)C(F)(F)F)CCO [AZD4320] (first compound max 1 µM, 7x7, partner max 1 µM) |  |  |  |  |  |  |  |  |  |  | -0.0802 | -0.0337 | -0.0433 | -0.0391 | -0.0311 | -0.0049 | -0.0104 | -0.0064 | -0.0417 | -0.0078 |
